# Experimental data as given in patent US11045519B2, “Arginine-rich polypeptide compositions and methods of using same” (UNM Rainforest Innovations, priority 2017, dated 2021).
# Tests used:
# Format in all cases: cell-based
# [1] = tested on: HPV16 PsVs; assay: Direct pre-incubation of HPV16 PsVs with peptide, dilution below IC50, then infection of HaCaT cells; conditions: 0.3 μM, 1 h 37° C., diluted 1500-fold, HaCaT cells 24 h
# Protocol: FIG. 3. […] HPV16 PsVs were incubated with 0.3 μM polyR for one hour at 37° C. The virus-polyR mixture was diluted with CM to reduce the polyR concentration below the IC50 value prior to incubation with HaCaT cells for 24 hours (HPV16-polyR). The control included untreated HPV16 PsVs (HPV16) added to HaCaT cells. Infection was measured after 24-hour incubation.
# FIG. 15. Direct interaction of PrS to HPV16 PsVs. HPV16 PsVs were incubated with 1 μM PrS or HA:PrS complex for one hour at 37° C. Virus-PrS/or HA:PrS mixture was diluted with CM in order to reduce the PrS concentration below the IC50 value, and incubated with HaCaT cells for 24 hours. The control included untreated HPV16 PsVs. Infection was measured after 24 hours incubation as described in FIG. 12.
# Typically, direct interaction of cationic inhibitors with the viral capsids of non-enveloped viruses (including HPV) is sufficient for antiviral activity. To determine whether polyR inhibited HPV16 infectivity by direct interaction with viral capsids, HPV16 PsVs were incubated with […] for one hour at 37° C. The virus-polyR mixture was diluted 1500-fold to reduce the polyR concentration below the IC50 value, then incubated with HaCaT cells. The control included cells exposed to HPV PsVs that were not treated with polyR. […]
# [2] = tested on: HPV16 PsVs; assay: Internalization of cell-bound HPV16 PsV into HaCaT cells (L1 immunoblot); conditions: HPV-bound HaCaT cells incubated 4 h
# Protocol: FIG. 8. PolyR reduces the internalization of cell membrane-bound HPV16 PsV. HaCaT cells were incubated with HPV16 PsVs for one hour at 4° C. Unbound virus was removed from the cells by incubation with 0.25% trypsin/5 mM EDTA for 15 minutes at 37° C. Cells were pelleted and washed several times with CM (to neutralize pH) and with ice-cold PBS before adding ice-cold 0.1 M sodium acetate buffer (pH 4.5) containing 0.5 M NaCl. After a two-minute incubation on ice, cells were washed three times with PBS and lysed with RIPA [50 mM Tris (pH 7.5), 0.1% SDS, 1% sodium deoxycholate, 150 mM NaCl, 1 mM EDTA, 1% Triton X-100, 1 mM sodium vanadate, 1 mM PMSF, 10 ng/ml leupeptin, 10 ng/ml aprotinin] buffer. Immuno-blotting was performed, and the L1 protein was detected using a HPV16 L1-specific mAb (Camvir-1, sc-47699, Santa Cruz Biotechnology, Inc., Dallas, Tex.).
# To investigate the effect of polyR on the penetration of cell-bound virus into host cells, HPV-bound cells were incubated for four hours in the absence or presence of polyR. […] Immuno-blotting was performed, and the L1 protein was detected using a HPV16 L1 specific mAb (Camvir-1; Santa Cruz Biotechnology, Inc., Dallas, Tex.). As HPV16 L1 is proteolytically processed during cell entry, two forms of L1 (full-length 55 kDa and the 25 kDa processed form) were detected. […]
# [3] = tested on: HPV16 PsVs; assay: Co-localization of HPV16 PsV with endosomal marker CD63 in HaCaT cells (confocal microscopy); conditions: 1 μM added 1 h after PsVs, further 7 h
# Protocol: FIG. 9. PolyR inhibits HPV16 L2 protein cleavage by furin and induces accumulation of internalized virus particles in late endosomal fraction. (A) Equal amount of HPV16 diluted in 50 μl furin assay buffer (1 mM CaCl2), 100 mM HEPES, 0.5% Triton X-100, 1 mM β-mercaptoethanol) was loaded into six tubes, and subsequently incubated for two hours at 30° C. without any inhibitor, in the presence of 1.3 μM furin inhibitor1 (Merck Millipore Corp., Burlington, Mass.), or 1 μM polyR. Samples were mixed with SDS-PAGE sample buffer and boiled before fractionation on 9% gel. Proteins were transferred onto PVDF membranes and after blocking, incubated with affinity-purified rabbit anti-HPV16 polyclonal antibody. Secondary donkey anti-rabbit horseradish peroxidase-coupled antibody was used for detection of HPV16 capsid proteins. (B) HaCaT cells grown on coverslips were incubated with HPV16 PsVs for one hour at 37° C. to initiate virus binding (and partial internalization) before adding 1 μM polyR and further incubated for seven hours. After the incubation, cells were fixed and stained for HPV16 and endogenous CD63, using primary anti-HPV16 rabbit polyclonal and anti-CD63 mouse monoclonal antibodies (Santa Cruz Biotechnology, Inc., Dallas, Tex.). […]
substance,measurement,setting,value
poly-L-arginine [polyR],effect of pre-incubation of HPV16 PsVs on infection,[1],did not inhibit infection to a statistically significant degree
same,"internalized L1 forms (55 kDa full-length, 25 kDa processed)",[2],decreased levels of 55 kDa L1 protein and increased amounts of the 25 kDa proteolytic processed L1 form
same,virus internalization rate (sum of IDVs of 55 kDa and 25 kDa L1 bands),[2],had no effect on the virus internalization rate
same,co-localization of HPV16 and CD63,[3],significantly increased co-localization of HPV16 and CD63
